# According to patent EP0339978B1, “Fused polycyclic compounds, compositions, methods of manufacture, and their use as PAF antagonists, antihistamines and/or antiinflammatory agents” (SCHERING CORPORATION, priority 1988, dated 1989):
# Key:
# PAF = PAF antagonism in vitro assay: PAF-induced platelet aggregation in platelet-rich plasma; format: cell-based; conditions: PAF 1-5 X 10^-8M, human PRP
# Method: Preparation of platelet-rich plasma (PRP): Human blood (50 ml) is collected from healthy male donors. The blood is mixed with an anticoagulant solution (5 ml) containing sodium citrate (3.8%) and dextrose (2%). Blood is centrifuged at 110 X g for 15 min. and the supernatant PRP is carefully transferred into a polypropylene tube. Platelet-poor-plasma (PPP) is prepared by centrifuging PRP at 12,000 X g for 2 min. in a Beckman Microfuge B. PRP is used within 3 hours of drawing the blood.
# Platelet Aggregation Assay: When an aggregating agent such as PAF is added to PRP, platelets aggregate. An aggregometer quantifies this aggregation by measuring light (infra-red) transmission through PRP and comparing it to transmission through PPP. The aggregation assays are performed using a dual-channel aggregometer (Model 440, Chrono-Log Corp., Havertown, PA). PRP (0.45 ml) in aggregometer curettes is continually stirred (37°C). Solutions of test compounds or vehicle are added to the PRP, and, after incubation for 2 min., 10-15 µl aliquots of pAF solution are added so as to achieve a final concentration of 1-5 X 10^-8M. Incubations are continued until the increase in light transmission reaches a maximum (usually about 2 min). Values for inhibition are calculated by comparing maximal aggregation obtained in the absence and the presence of the compound. For each experiment, a standard PAF antagonist, such as alprazolam, is used as a positive internal control. The inhibitory concentration is the concentration of compound in micromoles at which the indicated % inhibition of the aggregation is found, as measured by the light transmission through each sample of PRP as compared to that through each sample of PPP.
# [1] = test system: Cellular and Fluid Influx to Rat Pleural Cavity; experiment: Inhibition of cellular and fluid influx to rat pleural cavity (antiinflammatory activity assay); format: in vivo; conditions: 25 mg 1 kg p.o., rats
# Method: Compounds 3.0 of this invention are useful for the treatment of inflammation; thus, they are useful for the treatment of arthritus, bursitis, tendonitis, gout, and other inflammatory conditions. […] Protection against cellular and fluid influx strongly indicates antiinflammatory properties. D. Antiinflammatory Activity Assay Inhibition of Cellular and Fluid Influx to Rat Pleural Cavity. Groups of 4 male rats are injected in the penile vein with antigen (1 mg BSA in 0.2 mL of saline per rat) and 0.5 hour later injected in the pleural cavity with antibody (1.0 mg antibody protein in the IgG fraction of rabbit anti-BSA in 0.2 mL). […] After 4 hours the animals are killed with CO2, and the pleural cavities are opened and the exudate is drained into a graduated conical glass centrifuge tube containing indomethacin (1.8 ug) and nordihydroguaiaretic acid (NDGA) (15 ug) to block ex vivo metabolite synthesis. The volume of the exudate is measured. The cavity is then washed out with saline-EDTA to achieve a final volume of 5.0 mL. The number of cells is determined in a Coulter Counter. The cells are spun-down (1000 x g) and the exudate supernatant is added to 4 volumes of 95% ethanol and samples are kept on ice for 30 minutes. After removal of the protein precipitate (2,500 x g) the ethanol extract of the exudate is dried under N2 and then is stored at -20°C. […]
Structure (SMILES),Inhibition (%) (PAF; Dose 50 μm),reduced cellular influx to the pleural cavity [1],reduced fluid influx to the pleural cavity [1],Inhibition (%) (PAF; Dose 12 μm),Inhibition (%) (PAF; Dose 25 μm)
COc1ccc(Cn2c(C)nc3c2CCc2ccccc2C3=C2CCN(C(C)=O)CC2)cc1 [compound 5],67%,–,–,–,–
"O=C1c2ccccc2CCc2c1[nH]c1ccccc21 [Compound E, 11,12-Dihydrobenzo[5,6]cyclohepta[1,2-b]indol-6(5H)-one]",–,65%,25%,–,–
CC(=O)N1CCC(=C2c3ccccc3CCc3sc(C)nc32)CC1 [compound 4],100%,–,–,29%,71%
